pIC50: −log10 of the molar value. Read-outs that look alike come from different tables or passages of the source.
Tests used:
[1] = biological target: T1, human FLT3 protein (FLT3 (WT)) (Homo sapiens, UniProt P36888); assay: FLT3 inhibition test (FLT3 enzyme inhibition, time-resolved fluorescence of substrate peptide phosphorylation); format: biochemical; details: read-out: FLT3 (WT) enzyme inhibition activity
T1 construct: human FLT3 protein (intracellular region, 564 to 993 aa); GST; purchased Carna Biosciences; host or cells: baculovirus expression system
T1 sequence (P36888 564-993): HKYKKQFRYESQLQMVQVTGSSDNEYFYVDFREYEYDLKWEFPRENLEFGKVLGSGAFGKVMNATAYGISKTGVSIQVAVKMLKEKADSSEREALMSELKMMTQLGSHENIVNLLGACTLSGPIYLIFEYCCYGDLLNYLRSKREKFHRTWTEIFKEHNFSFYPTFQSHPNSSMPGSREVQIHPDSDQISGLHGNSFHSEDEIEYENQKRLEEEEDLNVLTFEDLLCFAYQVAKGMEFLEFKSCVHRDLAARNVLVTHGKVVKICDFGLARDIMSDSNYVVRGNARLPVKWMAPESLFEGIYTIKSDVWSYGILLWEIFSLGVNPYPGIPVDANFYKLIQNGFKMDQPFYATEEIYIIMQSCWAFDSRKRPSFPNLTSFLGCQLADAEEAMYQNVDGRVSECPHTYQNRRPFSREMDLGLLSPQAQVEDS
Method in brief: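 Wild-type human FLT3 (1.2 μg) pre-incubated with compound 15 min at 25° C in 100 mM HEPES pH 7.5, 10 mM MgCl2, 25 mM NaCl, 1 mM DTT. Reaction started with substrate peptide and ATP (final 50 μM), run 30 min at 25° C; phosphorylation read by time-resolved fluorescence.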

Molm-13 cells = assay: Leukemia cell proliferation inhibition test (ATPlite), Molm-13; format: cell-based; details: Homo sapiens, read-out: MOLM13 cell proliferation inhibition effect
Method in brief: (§1)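 Proliferation inhibition is quantified from total cellular ATP, measured by luciferase luminescence, after cells grow with compound for 72 hours. The GI50 is the concentration giving half the signal of the 0.1% DMSO control, fitted to a sigmoid curve from duplicate points.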

MV4-11 cells = assay: Leukemia cell proliferation inhibition test (ATPlite), MV4-11; format: cell-based; details: Homo sapiens, read-out: MV4-11 cell proliferation inhibition effect
Method in brief: as §1

[2] = GST-fused human FLT3 (564 to 993 aa), ATP 50 μM
[3] = MOLM-13, 72 h, Molm-13, 72 hours culture, ATPlite, GI50 per method
[4] = MV4-11, 72 h, MV4-11, 72 hours culture, ATPlite, GI50 per method

Structure (SMILES) | pIC50 [1, 2] | pIC50 (Molm-13 cells; [3]) | pIC50 (MV4-11 cells; [4]) | pIC50 ([1]; FLT3 (WT)) | pIC50 (Molm-13 cells; MOLM-13, MOLM13 cell) | pIC50 (MV4-11 cells; MV4-11, MV4-11 cell)
CC(C)c1ccc(Nc2nc(Nc3cccc(F)c3)ncc2C#CCCCNC(=O)[C@H](C)N(C)C(=O)/C=C/CN(C)C)cc1 [Compound 10-12] | > 8.00 | 7.00 to 8.00 | > 8.00 | – | – | –
C[C@@H](C(=O)NCCCC#Cc1cnc(Nc2cccc(F)c2)nc1NCC1CC1)N(C)C(=O)/C=C/CN(C)C [Compound 21-4] | > 8.00 | 7.00 to 8.00 | > 8.00 | – | – | –
CC(C)Nc1nc(Nc2cccc(F)c2)ncc1C#C[C@@H]1CCC[C@H](NC(=O)[C@H](C)N(C)C(=O)/C=C/CN(C)C)C1 [Compound 21-30] | – | – | – | > 8.00 | > 8.00 | > 8.00
CCCNc1nc(Nc2cccc(F)c2)ncc1C#CCCCNC(=O)[C@@H]1C[C@@H](F)CN1C(=O)/C=C/CN(C)C [Compound 7-47] | > 8.00 | > 8.00 | > 8.00 | – | – | –
CCCNc1nc(Nc2ccnc(OC)c2)ncc1C#CCCCNC(=O)[C@@H]1C[C@H](O)CN1C(=O)/C=C/CN(C)C [Compound 9-36] | > 8.00 | > 8.00 | > 8.00 | – | – | –
CCCNc1nc(Nc2ccccc2)ncc1C#CCCCNC(=O)[C@H](C)N(C)C(=O)/C=C/CN(C)C [Compound 12-1, (S,E)-4-(dimethylamino)-N-methyl-N-(1-oxo-1-((5-(2-(phenylamino)-4-(propylamino)pyrimidin-5-yl)-4-pentyn-1-yl)amino)propan-2-yl)-2-butenamide] | > 8.00 | > 8.00 | > 8.00 | – | – | –
CCCNc1nc(Nc2cccc(F)c2)ncc1C#CCCCNC(=O)[C@H](CCC)N(C)C(=O)/C=C/CN(C)C [Compound 7-18] | > 8.00 | 7.00 to 8.00 | 7.00 to 8.00 | – | – | –
C[C@@H](C(=O)NCCCC#Cc1cnc(Nc2ccnc(F)c2)nc1NCCCF)N(C)C(=O)/C=C/CN(C)C [Compound 9-17] | > 8.00 | > 8.00 | > 8.00 | – | – | –
COc1nc(Nc2cccc(F)c2)ncc1C#C[C@@H]1CCC[C@H](NC(=O)[C@H](C)N(C)C(=O)/C=C/CN(C)C)C1 [Compound 15-4] | > 8.00 | > 8.00 | > 8.00 | – | – | –
CCCNc1nc(Nc2ccc(C(N)=O)cc2)ncc1C(=O)Nc1cccc(NC(=O)[C@H](C)N(C)C(=O)/C=C/CN(CC)CC)c1 [Compound 4-8, (S,E)-2-((4-Carbamoylphenyl)amino)-N-(3-(2-(4-(diethylamino)-N-methyl-2-butenamido)propanamido)phenyl)-4-(propylamino)pyrimidine-5-carboxamide] | > 8.00 | > 8.00 | > 8.00 | – | – | –
CCCNc1nc(Nc2cccc(F)c2)ncc1C#CCCC(=O)NCCN(C)C(=O)/C=C/CN(C)C [Compound 8-21] | 7.00 to 8.00 | 6.00 to 7.00 | 6.00 to 7.00 | – | – | –
CCCNc1nc(Nc2cccc(F)c2)ncc1C#Cc1cccc(NC(=O)[C@H](C)N(C)C(=O)/C=C/CN(C)C)c1 [Compound 8-1, (S,E)-4-(dimethylamino)-N-(1-((3-((2-((3-fluorophenyl)amino)-4-(propylamino)pyrimidin-5-yl)ethynyl)phenyl)amino)-1-oxopropan-2-yl)-N-methyl-2-butenamide] | > 8.00 | > 8.00 | > 8.00 | – | – | –
COCCCNc1nc(Nc2ccc3cn[nH]c3c2)ncc1C#CCCCNC(=O)[C@@H]1CCCN1C(=O)/C=C/CN(C)C [Compound 10-71] | > 8.00 | > 8.00 | > 8.00 | – | – | –
CCCNc1nc(Nc2ccc(C(F)(F)F)cc2)ncc1C#CCCCNC(=O)[C@H](C)N(C)C(=O)/C=C/CN(C)C [Compound 12-5] | > 8.00 | 7.00 to 8.00 | 7.00 to 8.00 | – | – | –
COCCCNc1nc(Nc2cccc(F)c2)ncc1C#CCCCNC(=O)[C@H](C)N(C)C(=O)/C=C/CN(C)C [Compound 10-1, (S,E)-4-(dimethylamino)-N-(1-((5-(2-((3-fluorophenyl)amino)-4-((3-methoxypropyl)amino)pyrimidin-5-yl)-4-pentyn-1-yl)amino)-1-oxopropan-2-yl)-N-methyl-2-butenamide] | > 8.00 | 7.00 to 8.00 | > 8.00 | – | – | –
CN(C)C/C=C/C(=O)N1CCC[C@H]1C(=O)NCCCC#Cc1cnc(Nc2ccc3[nH]ncc3c2)nc1NC1CC1 [Compound 10-74] | > 8.00 | > 8.00 | > 8.00 | – | – | –

Structure (SMILES) | pIC50 [1, 2] | pIC50 (Molm-13 cells; [3]) | pIC50 (MV4-11 cells; [4]) | pIC50 ([1]; FLT3 (WT)) | pIC50 (Molm-13 cells; MOLM-13, MOLM13 cell) | pIC50 (MV4-11 cells; MV4-11, MV4-11 cell)
CNc1nc(Nc2cccc(C#N)c2)ncc1C#CCCCNC(=O)[C@@H]1C[C@H](F)CN1C(=O)/C=C/CN(C)C [Compound 7-75] | > 8.00 | > 8.00 | > 8.00 | – | – | –
CCCNc1nc(Nc2ccc3ncsc3c2)ncc1C#CCCCNC(=O)[C@H](C)N(C)C(=O)/C=C/CN(C)C [Compound 22-6, (S,E)-N-(1-((5-(2-(Benzo[d]thiazol-6-ylamino)-4-(propylamino)pyrimidin-5-yl)-4-pentyn-1-yl)amino)-1-oxopropan-2-yl)-4-(dimethylamino)-N-methyl-2-butenamide] | – | – | – | > 8.00 | > 8.00 | > 8.00
CNc1nc(Nc2ccc(C#N)cc2)ncc1C#CCCCNC(=O)[C@@H]1CCCN1C(=O)/C=C/CN(C)C [Compound 21-45] | – | – | – | > 8.00 | > 8.00 | > 8.00
CCCNc1nc(Nc2cnc3c(cnn3C)c2)ncc1C#CCCCNC(=O)[C@@H]1CCCN1C(=O)/C=C/CN(C)C [Compound 22-43, (S,E)-1-(4-(Dimethylamino)-2-butenoyl)-N-(5-(2-((1-methyl-1H-pyrazolo[3,4-b]pyridin-5-yl)amino)-4-(propylamino)pyrimidin-5-yl)-4-pentyn-1-yl)pyrrolidine-2-carboxamide] | – | – | – | > 8.00 | > 8.00 | > 8.00
CCCNc1nc(Nc2ccc3nccnc3c2)ncc1C#CCCCNC(=O)[C@H](C)N(C)C(=O)/C=C/CN(C)C [Compound 22-4] | – | – | – | > 8.00 | > 8.00 | > 8.00
CCCNc1nc(Nc2cnc(NC)c(F)c2)ncc1C#CCCCNC(=O)[C@H](C)N(C)C(=O)/C=C/CN(C)C [Compound 21-14] | > 8.00 | 7.00 to 8.00 | 7.00 to 8.00 | – | – | –
CCCNc1nc(Nc2ccc(C(N)=O)cc2)ncc1C(=O)Nc1cccc(NC(CNC(=O)/C=C/CN(C)C)C(F)(F)F)c1 (stereo not drawn) [Compound 3-17] | > 8.00 | < 6.00 | 6.00 to 7.00 | – | – | –
C=CC(=O)NC(C)(C)C(=O)NCCCNC(=O)c1cnc(Nc2ccc3cnccc3c2)nc1NCCC [Compound 6-7] | > 8.00 | 7.00 to 8.00 | 7.00 to 8.00 | – | – | –
C=CC(=O)N(C)CC(=O)NCCCNC(=O)c1cnc(Nc2ccc3cnccc3c2)nc1NCCC [Compound 6-6] | > 8.00 | > 8.00 | > 8.00 | – | – | –
CCCNc1nc(Nc2ccc(C(N)=O)cc2)ncc1C(=O)Nc1ccccc1CNC(=O)[C@H](C)N(C)C(=O)/C=C/CN(C)C [Compound 3-15] | > 8.00 | 6.00 to 7.00 | 6.00 to 7.00 | – | – | –
CCCNc1nc(Nc2ccc(C#N)cc2)ncc1C#CCCCNC(=O)[C@@H]1C[C@@H](F)CN1C(=O)/C=C/CN(C)C [Compound 7-48] | > 8.00 | > 8.00 | > 8.00 | – | – | –
C=CC(=O)NCC(=O)NC1CCCC(NC(=O)c2cnc(NCCc3ccncc3)nc2NCCC)C1 (stereo not drawn) [Compound 1-4] | > 8.00 | 7.00 to 8.00 | > 8.00 | – | – | –
C=CC(=O)N(C)[C@@H](C)C(=O)NCCCNC(=O)c1cnc(Nc2ccc(C(N)=O)cc2)nc1NCCC [Compound 5-3] | > 8.00 | 7.00 to 8.00 | 7.00 to 8.00 | – | – | –
CCCNc1nc(Nc2ccc(C(N)=O)cc2)ncc1C(=O)Nc1cccc(NC(=O)[C@H](C)N(C)C(=O)/C=C/CN(C)C)c1 [Compound 3-1, (S,E)-2-((4-carbamoylphenyl)amino)-N-(3-(2-(4-(dimethylamino)-N-methyl-2-butenamido)propanamido)phenyl)-4-(propylamino)pyrimidine-5-carboxamide] | > 8.00 | > 8.00 | > 8.00 | – | – | –
CCCN(C)c1nc(NCCc2ccncc2)ncc1C#Cc1cccc(NC(=O)[C@H](C)N(C)C(=O)/C=C/CN(C)C)c1 [Compound 12-14, (S,E)-4-(dimethylamino)-N-methyl-N-(1-((3-((4-(methyl(propyl)amino)-2-((2-(pyridin-4-yl)ethyl)amino)pyrimidin-5-yl)ethynyl)phenyl)amino)-1-oxopropan-2-yl)-2-butenamide] | > 8.00 | > 8.00 | > 8.00 | – | – | –

Source: US9145415B2, “Nitrogen-containing heterocyclic compound or salt thereof” (FUJIFILM Corporation, priority 2012, dated 2015)
